# Measurements as given in the supplement of paper PMC10307832.
# Experiments:
# Experiment in all cases: relative viability (nuclei count vs DMSO), 5 days (fraction); higher = more cells survive
# [1] = compound: COc1cc2/c(=N/c3ccc(Br)cc3F)nc[nH]c2cc1OCC1CCN(C)CC1 [Vandetanib] + C[C@]1(O)C[C@@H](c2nc(-c3ccc4ccc(-c5ccccc5)nc4c3)c3c(N)nccn32)C1 [Linsitinib] (partner 1 µM)
# Procedure, shortened: (§1)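 For relative viability, nuclei counts in treated wells were divided by those in vehicle wells. Lung cancer cell lines had been pin-tool dosed in 1536-well plates the day after seeding and cultured for 5 days, then fixed and stained in one step (final 0.05% Triton X-100, 1% formaldehyde, 1 ug/ml Hoechst) and imaged at 4×. Doses were one drug alone or a fixed anchor-drug dose plus five library-drug doses (not always all listed) in √10 steps, and values are duplicate-plate medians.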
# [2] = compound: COc1cc(N2CCC(N3CCN(C)CC3)CC2)ccc1Nc1ncc(Cl)c(Nc2ccccc2S(=O)(=O)C(C)C)n1 [NVP-TAE684] + CC(=O)c1c(C)c2cnc(Nc3ccc(N4CCNCC4)cn3)nc2n(C2CCCC2)c1=O [Palbociclib] (partner 0.5 µM)
# Procedure, shortened: as §1
# [3] = compound: COc1cc2/c(=N/c3ccc(Br)cc3F)nc[nH]c2cc1OCC1CCN(C)CC1 [Vandetanib] + CC(C)C[C@H](NC(=O)[C@H](Cc1ccccc1)NC(=O)c1cnccn1)B(O)O [Bortezomib] (partner 0.002 µM)
# Procedure, shortened: as §1
# [4] = compound: C1=CC=C2C(=C1)N=C(S2)C(C#N)C3=NC(=NC=C3)NCCC4=CN=CC=C4 + Nc1nc2[nH]cc(CCc3ccc(C(=O)N[C@@H](CCC(=O)O)C(=O)O)cc3)c2c(=O)[nH]1 [Pemetrexed] (partner 0.2 µM)
# Procedure, shortened: as §1
Cell Line,relative viability ([1]; first compound 0.02 µM),relative viability ([1]; first compound 0.06325 µM),relative viability ([1]; first compound 0.2 µM),relative viability ([1]; first compound 0.6325 µM),relative viability ([1]; first compound 2 µM),relative viability ([2]; first compound 0.2 µM),relative viability ([2]; first compound 0.6325 µM),relative viability ([2]; first compound 2 µM),relative viability ([3]; first compound 0.02 µM),relative viability ([3]; first compound 0.06325 µM),relative viability ([3]; first compound 0.2 µM),relative viability ([3]; first compound 0.6325 µM),relative viability ([3]; first compound 2 µM),relative viability ([4]; first compound 0.005 µM),relative viability ([4]; first compound 0.05 µM),relative viability ([4]; first compound 0.1581 µM),relative viability ([4]; first compound 0.5 µM),relative viability ([4]; first compound 0.01581 µM)
PC-3 [JPC-3],0.946,0.882,0.963,0.876,0.522,0.53,0.521,0.422,0.828,0.738,0.646,0.734,0.431,1.14,1.08,1.37,0.914,–
IA-LM,0.616,0.567,0.616,0.593,0.673,–,–,–,0.727,0.831,1.01,1.06,0.953,–,–,–,–,–
NCI-H520,0.886,1.1,0.942,0.904,0.912,0.227,0.267,0.152,0.608,0.623,0.527,0.45,0.569,0.528,0.784,0.834,0.818,0.652
A549,0.718,0.498,0.711,0.587,0.495,–,–,–,–,–,–,–,–,–,–,–,–,–
BEN,0.851,0.82,0.869,0.868,0.793,0.486,0.479,0.495,0.875,0.714,0.83,0.919,0.861,0.751,0.773,0.883,0.741,0.627
COR-L 105,0.891,0.877,0.976,0.54,0.444,0.4,0.393,0.297,0.827,0.661,0.851,0.474,0.388,0.839,1.03,1.03,1.02,1.24
NCI-H1734,0.849,0.891,0.849,0.89,0.848,0.375,0.324,0.316,0.976,0.869,0.944,0.904,0.926,0.412,0.416,0.434,0.418,0.405
LOU-NH91,0.954,0.733,0.679,0.685,0.629,0.548,0.504,0.502,0.514,0.47,0.535,0.504,0.504,0.403,0.418,0.375,0.441,0.429
NCI-H2405,0.901,0.552,0.959,1.01,0.665,0.524,0.525,0.337,0.96,0.9,0.985,0.948,1,1.14,1.07,1.1,0.98,0.998
HCC-15,0.816,0.804,0.91,0.864,0.849,0.63,0.7,0.587,1.03,0.962,0.956,1.08,1.08,0.215,0.223,0.228,0.227,0.23
HCC-44,0.642,0.64,0.753,0.724,0.688,1.01,0.986,0.867,0.866,0.884,0.951,0.958,0.89,0.723,0.668,0.648,0.675,0.677
NCI-H1792,0.559,0.605,0.559,0.547,0.454,0.606,0.615,0.648,0.994,0.926,0.914,0.865,0.887,–,0.875,1.22,0.335,0.889
NCI-H2347,0.976,0.64,0.929,0.995,0.982,0.449,0.453,0.359,0.878,–,0.896,0.956,0.969,0.405,0.471,0.409,0.461,0.515
SW 900,–,–,–,–,–,0.576,0.456,0.43,–,–,–,–,–,0.39,0.484,0.521,0.482,0.471
RERF-LC-KJ,0.922,0.859,0.939,0.835,0.763,1.14,1.11,0.907,1.05,0.961,1.05,0.951,0.958,0.468,0.465,0.507,0.502,0.505
NCI-H522,–,–,–,–,–,0.973,0.99,0.893,–,–,–,–,–,1.22,1.01,0.807,1.03,0.698
NCI-H1666,0.836,0.817,0.793,0.641,0.619,0.642,0.713,0.617,0.849,0.814,0.712,0.831,0.786,0.835,0.832,0.852,0.827,0.823
LC-2-ad,0.818,0.787,0.841,0.746,0.417,0.43,0.482,0.32,0.708,0.984,0.769,0.884,0.322,0.259,0.293,0.271,0.278,0.328
NCI-H2023,0.698,0.607,0.676,0.589,0.485,0.291,0.358,0.116,0.924,0.839,0.96,1.03,1.04,0.211,0.205,0.264,0.213,0.26
SK-LU-1,1.05,0.759,0.896,1.12,1.12,0.352,0.388,0.333,1.23,1.01,1.21,1.39,0.467,0.81,0.956,1.12,0.89,1.06
